The record followed here is patent US20220380371A1, “MLL1 INHIBITORS AND ANTI-CANCER AGENTS” (NOVARTIS AG, priority 2019, published 2022).

Test [1] deals with wild type MLL1 four-member complex (MLL1-4C) (Homo sapiens, UniProt Q03164). Kind of test: MLL1 LC-MS Assay. The format is biochemical. The note with it: read-out: MLL1 LCMS. The method in brief:
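Compound pre-incubated 20 min with MLL1-4C and SAM, then H3[1-21]-biotin (H3K4me0) substrate added; final 30 nM enzyme, 2.5 μM SAM, 10 μM peptide in Tris pH 8.0 with MgCl2, DTT, Tween 20, BSA. After 120 min at rt, TFA-quenched SAH quantified by LC-MS/MS with d4-SAH; IC50 from dose-response fit.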

Test [2] addresses wild type MLL1 five-member complex (MLL1-5C) (Homo sapiens, UniProt Q03164). Description: MLL1 Flashplate Assay. It is filed as biochemical. Particulars: read-out: MLL1 flash plate.
Test [3] deals with H3K4me3 in MV4-11 cells. Description: MV4-11 H3K4me3 Cellular ELISA Assay. It is filed as cell-based. The note with it: Homo sapiens, MV4-11, 48 h. The gist of the method:
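MV4-11 cells were treated for 48 h with 12-point 1:3 compound dilutions (from 10 mM stock), then histones were acid-extracted with 0.5M HCl and neutralized. H3K4me3 and total H3 were measured by HRP chemiluminescent ELISA, and inhibition versus DMSO after H3 normalization was curve-fitted for IC50.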

The subject of test [4] is MV4-11 cells. Description: MV4-11 6-Day Cell Growth CTG (CellTiter-Glo) Assay. The format is cell-based. The note with it: Homo sapiens, MV4-11, 144 h, MV4-11 cell growth CellTiter-Glo, 6 days. The method in brief: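 MV4-11 AML cells (RPMI 1640, 10% FBS) seeded at 300 cells/well and exposed for 6 days at 37 °C to a 12-point, 1:3 compound series starting at 50 μM final. Viable cells read by CellTiter-Glo luminescence; percent inhibition versus DMSO-only wells fitted to dose-response curves for IC50.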
For orientation: In ATP-based viability assays light output follows the ATP content of the culture.

As for `CCc1c(Cl)ccc(N2CC[C@](N)(C(=O)NCCS(=O)(=O)c3ccccc3)C2)c1Cn1cnc2c(N)ncnc21` [Example 145], the IC50 is below 50 nM in test [1], below 60 nM in test [2], below 1900 nM in test [3] and below 2000 nM in test [4].

With `Nc1ncnc2c1ncn2Cc1c(N2CC[C@](N)(C(=O)NC3CC3)C2)ccc(Br)c1C(F)(F)F` [Example 146], the IC50 in test [1] was below 50 nM; in test [2], below 60 nM; in test [3], below 1900 nM; in test [4], below 2000 nM.

As for `Nc1ncnc2c1ncn2Cc1c(N2CC[C@](N)(C(=O)NC3CC3)C2)ccc(OC(F)(F)F)c1Br` [Example 147], the IC50 in test [1] was below 50 nM; in test [2], below 60 nM; in test [3], below 1900 nM; in test [4], below 2000 nM.

For the compound `NC(=O)[C@@]1(N)CCN(c2cc(Cl)cc(Br)c2Cn2cnc3c(N)ncnc32)C1` [Example 148], the IC50 is below 50 nM in test [1], below 60 nM in test [2], below 1900 nM in test [3] and below 2000 nM in test [4].

Take `CCc1c(Cl)ccc(N2CC[C@](N)(C(=O)NCCS(=O)(=O)CC)C2)c1Cn1cnc2c(N)ncnc21` [Example 149]: the IC50 was below 50 nM in test [1], below 60 nM in test [2], below 1900 nM in test [3] and below 2000 nM in test [4].

On to `Nc1ncnc2c1ncn2Cc1c(-c2cccc3c2CCCC3)cc(Cl)cc1N1CC[C@](N)(C(=O)NC2CC2)C1` [Example 150], for which the IC50 in test [1] is below 50 nM; in test [2] it was below 60 nM; in test [3] it was 1900 to 3000 nM; in test [4], below 2000 nM.

As to `CCc1cc(Cl)cc(N2CC[C@](N)(C(=O)N3CCS(=O)(=O)CC3)C2)c1Cn1cnc2c(N)ncnc21` [Example 151], the IC50 is above 100 nM in test [1], below 60 nM in test [2], below 1900 nM in test [3] and below 2000 nM in test [4].

As for `Nc1ncnc2c1ncn2Cc1c(Cl)c(Cl)cc(F)c1N1CCC(N)(C(=O)NC2CC2)C1` (stereo not drawn) [Example 152], the IC50 in test [1] was above 100 nM; in test [2], below 60 nM; in test [3], below 1900 nM; in test [4], below 2000 nM.

In the case of `CCc1c(Cl)ccc(N2CC[C@](N)(C(=O)NC3CCS(=O)(=O)CC3)C2)c1Cn1cnc2c(N)ncnc21` [Example 153], the IC50 in test [1] is below 50 nM; in test [2], 60 to 100 nM; in test [3] it was below 1900 nM; in test [4] it was below 2000 nM.

On to `CCc1ccc(Cl)c(N2CC[C@](N)(C(=O)NC3CC3)C2)c1Cn1cnc2c(N)ncnc21` [Example 154], for which the IC50 is below 50 nM in test [1], above 100 nM in test [2], below 1900 nM in test [3] and below 2000 nM in test [4].

As to `CCc1c(Cl)ccc(N2CC[C@](N)(C(=O)N3CCS(=O)(=O)CC3)C2)c1Cn1cnc2c(N)ncnc21` [Example 155], the IC50 in test [1] was above 100 nM; in test [2], above 100 nM; in test [3] it was below 1900 nM; in test [4], below 2000 nM.

As to `CCOC(=O)[C@@]1(N)CCN(c2cc(Cl)cc(Br)c2Cn2cnc3c(N)ncnc32)C1` [Example 170], the IC50 in test [1] is 50 to 100 nM; in test [2], below 60 nM; in test [3], below 1900 nM; in test [4], below 2000 nM.
